{"source": "patent US11179450B2", "about": "“Long chain antigen containing interepitope sequence that promotes antigen presentation to T cells” (MIE UNIVERSITY, priority 2013, dated 2021)", "tested_on": "CD8+ T cells specific to MA p265, NY p81 and mERK2 9m", "experiment": "Specific CD8+ T cell induction by CHP/long chain peptide vaccines in mice, intracellular cytokine staining of spleen cells", "type": "in vivo, BALB/c mice", "description": "Long chain peptide antigens MEN, all containing three types of mouse CD8+ T cell epitope sequences (MA p265 (Sequence No. 27), NY p81 (Sequence No. 29), and mERK2 9m (Sequence No. 28)), were synthesized. The interepitope sequences between the respective epitopes were respectively six consecutive tyrosines (Y6) (Sequence No. 1), six consecutive glycines (G6) (Sequence No. 2), six consecutive prolines (P6) (Sequence No. 3), or six consecutive threonines (T6) (Sequence No. 4). Each long chain peptide antigen was complexed with cholesterol-modified pullulan (CHP), which is a type of delivery system, and administered as a vaccine to a mouse. In the process of administration, CpG oligo DNA was coadministered as an adjuvant. Spleen cells were collected one week after the final administration and the frequencies of CD8+ T cells specific to the respective epitope sequences were measured by an intracellular cytokine staining method.\nLong chain peptide antigens NME, all containing three types of mouse CD8+ T cell epitope sequences (MA p265 (Sequence No. 27), NY p81 (Sequence No. 29), and mERK2 9m (Sequence No. 28)), were synthesized. The antigens differ from the MEN sequences shown in FIG. 1 in the order of the three types of epitopes. The interepitope sequences between the respective epitopes were respectively six consecutive tyrosines (Y6) (Sequence No. 5), six consecutive glycines (G6) (Sequence No. 6), or six consecutive prolines (P6) (Sequence No. 7). Vaccines containing the respective long chain peptide antigens were administered to mice in the same manner as in FIG. 1 and the frequencies of CD8+ T cells specific to the respective epitope sequences were measured by the intracellular cytokine staining method.\nLong chain peptide antigens MEN, ENM, and NME, all containing three types of mouse CD8+ T cell epitope sequences (MA p265 (Sequence No. 27), NY p81 (Sequence No. 29), and mERK2 9m (Sequence No. 28)), were synthesized. MEN, ENM, and […] in the order of the three types of epitopes. The interepitope sequences between the respective epitopes were each six consecutive tyrosines (Y6) (Sequence Nos. 1, 5 and 8). Vaccines containing the respective long chain peptide antigens were administered to mice in the same manner as in FIG. 1 and the frequencies of CD8+ T cells specific to the respective epitope sequences were measured by the intracellular cytokine staining method.\nEach long chain peptide was dissolved in dimethyl sulfoxide (DMSO) at a concentration of 10 mg/mL. CHP was dissolved in 6 M urea-containing phosphate buffered saline (PBS) at a concentration of 10 mg/mL 1 mL (10 mg) of the long chain peptide solution and 20 mL (200 mg) of the CHP solution were mixed and left to stand at room temperature overnight in a dark place. The liquid mixture was transferred into a dialysis membrane (molecular weight cutoff: 3,500; Thermo Fisher Scientific, Inc.) and dialyzed for 2 hours to overnight at 4° C. against 0.6 M urea-containing PBS of a volume ratio of not less than 100 times as the dialysis outer solution. Dialysis was then performed for 2 hours to overnight at 4° C. against 0.06 M urea-containing PBS of a volume ratio of not less than 100 times as the dialysis outer solution. Dialysis was performed again for 2 hours to overnight at 4° C. against PBS of a volume ratio of not less than 100 times as the dialysis outer solution. The dialyzed inner solution was collected, filtered through a filtration sterilization filter of 0.45 μm or 0.22 μm pore size, and thereafter the UV absorption at 280 nm was measured to determine the final concentration of the long chain peptide from its molecular extinction coefficient.\nEach CHP/long chain peptide complex as the vaccine and the CpG oligo DNA as the adjuvant were administered at the same time to a mouse. Administration was performed by subcutaneous injection on the back of the mouse. […]"}
{"sequence": "SNPARYEFLYYYYYYQYIHSANVLYYYYYYRGPESRLL (Long chain peptide antigen, containing three types of mouse CD8+ T cell epitope sequences (MA p265, NY p81, and mERK2 9m)) [MEN(Y6)]", "values": [{"measurement": "induction of specific CD8+ T cells corresponding to all three types of epitopes", "setting": "FIG. 1, MEN antigens complexed with CHP, subcutaneous, CpG oligo DNA adjuvant, spleen cells one week after final administration", "value": "clearly induced"}, {"measurement": "induction of specific CD8+ T cells corresponding to all three types of epitopes", "setting": "FIG. 4, MEN, ENM, NME epitope orders, interepitope sequence fixed at Y6", "value": "clearly induced"}, {"measurement": "number of tyrosines of the interepitope sequence, judged in view of the results for the three types of epitopes", "setting": "FIG. 6, comparing one to six tyrosines", "value": "best"}, {"measurement": "number of tyrosines of the interepitope sequence, judged in view of the results for the three types of epitopes", "setting": "FIG. 7, comparing five to ten tyrosines", "value": "best"}]}
